Measurements published in patent publication US20160051704A1, “MOLECULAR IMAGING PROBES FOR LUNG CANCER INTRAOPERATIVE GUIDANCE” (H. Lee Moffitt Cancer Center and Research Institute, Inc., priority 2013, published 2016).

Legend:
[1] = target: T1, delta opioid receptor (δOR) (Homo sapiens, UniProt P41143); assay: Lanthanide time-resolved fluorescence (TRF) competitive binding assay on HCT-116/δOR whole cells against Eu-DTPA-DPLCE; settings: HCT-116 cells engineered to express δOR; competed ligand Eu-labeled DPLCE; read-out: Ki (δOR binding affinity)
T1 construct: pcDNA-δOR15 vector containing a truncated δOR lacking the final 15 C-terminal amino acids; expressed in transfected cells
T1 sequence (P41143 1-357 limits assumed): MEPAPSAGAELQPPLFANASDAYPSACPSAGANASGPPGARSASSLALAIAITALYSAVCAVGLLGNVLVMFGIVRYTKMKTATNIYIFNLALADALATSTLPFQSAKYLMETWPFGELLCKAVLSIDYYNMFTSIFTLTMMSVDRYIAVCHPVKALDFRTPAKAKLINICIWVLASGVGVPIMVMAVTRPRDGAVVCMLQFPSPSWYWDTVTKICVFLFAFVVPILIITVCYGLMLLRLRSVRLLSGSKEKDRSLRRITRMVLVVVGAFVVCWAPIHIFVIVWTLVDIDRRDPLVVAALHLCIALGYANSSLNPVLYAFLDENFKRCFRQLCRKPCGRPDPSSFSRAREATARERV
Text: The inventors have previously generated an engineered cell line that stably overexpresses the δO R based on the colorectal cancer cell line HCT-116. […] For the LTRF competition binding assays with Dmt-Tic-IR800, the inventors used the engineered HCT-116/δOR cell line since it has a high number of receptors on the cell surface.
To determine binding affinity the inventors used a lanthanide time-resolved fluorescence (LTRF) competitive binding assay as described previously.
For the competitive binding assays, HCT-116/δOR cells were plated in black wall/white bottom 96-well plates (Perkin Elmer, Cat. #6005060) at a density of 20,000 cells per well and were allowed to grow for 3 days.
On the day of the experiment, media were aspirated from all wells and then the cells were rinsed with phosphate buffered saline (PBS) (100 μL/well). […] Ligands were diluted in binding assay buffer (Modified Eagles medium [MEM] (Gibco, Cat. #61100-087), 1 mM 1,10-phenanthroline, 200 mg/L bacitracin, 0.5 mg/L leupeptin, 26 mM NaHCO3, 25 mM HEPES, 0.2% w/v BSA) and samples were tested in octuplicate.
Cells were incubated in the presence of ligands for 1 h at 37° C. and 5% CO2. Following the incubation, cells were washed three times with wash buffer (50 mM Tris-HCl, 0.2% w/v BSA, 30 mM NaCl) (200 μL/well).

[2] = test system: HCT-116/δOR (δOR+) tumor relative to HCT-116 (δOR−) tumor; assay type: in vivo, mice
Method: (§1) The inventors evaluated a synthetic peptide δ-opioid receptor (δOR) antagonist Dmt-Tic (FIG. 8) conjugated to two different fluorescent dyes, Cy5 and IR800CW, as further discussed below. The pharmacokinetics (PK) of Dmt-Tic-Cy5 was evaluated in a subcutaneous xenograft model using HCT-116 cells (δOR−) and HCT-116 cells that were engineered to overexpress the δOR (δOR+). Tumor uptake of Dmt-Tic-Cy5 was also studied by intravital fluorescence microscopy using a dorsal skin-fold window chamber tumor xenograft model.
For PK experiments, mice were injected with 4.5 nmol/kg Dmt-Tic-Cy5 i.v. and images acquired at various time points from 0-168 h ([…]). Graphs 9B and 9C depict the mean fluorescent signal obtained from the δOR− tumors and δOR+ tumors over a time course of 0-168 h. Graph […] depicts the mean fold of enhancement (δOR+ tumor signal/δOR− tumor signal) over time. The tumor signals were quantified, averaged (n≧3 for each time point), and plotted over time. The graphs 9B and 9C show maximum probe uptake in the δOR+ tumor at 3 h. FIG. 9D depicts the maximum signal fold of enhancement (27±9 s.d.) at 18 h in δOR+ relative to δOR− tumors.
Mice then were tail vein injected with 10 μg of ligand 1 and images were acquired at different times post-injection using a VersArray 1300B cooled CCD camera, a filtered fiberoptic light source and a tunable emission filter (CRI, Inc.). After 15 min post-injection, the fluorescence intensity maps indicated systemic presence of the compound with high intensity throughout the animal (not shown). […] Histograms were generated for each ROI, and mean fluorescence intensities were determined for each time point. […]
Initial experiments were performed using the HCT-116 parental cell line and HCT-116/δOR engineered cells in a bilateral flank subcutaneous xenograft model in mice. […] Mice were injected intravenously with the designated concentrations of Dmt-Tic-IR800 and fluorescence imaging was performed at various time points post-injection using the IVIS200 imaging system. […]

[3] = test system: DMS-53 (δOR+) tumor relative to H1299 (δOR−) tumor; assay: In vivo fluorescence imaging, bilateral subcutaneous lung cancer xenografts with endogenous δOR expression; design: species or system mice; settings: for tumor selectivity in fluorescence image: 40 nmol/kg, 24 h post-administration
Method: Mice were subcutaneously injected with H1299 (δOR−) (12 million cells of 100 uL per injection) and DMS-53 (δOR+) (20 million cells at 100 uL per injection) cells in the left and right flanks, respectively. Tumors were grown for 3 weeks after subcutaneous injection.
A dose determination assay was performed to find the optimal concentration of Dmt-Tic-IR800 for further experiments. A higher concentration of the imaging agent in these experiments was needed due to the lower receptor number. Based on previous work with fluorescent imaging agents targeting different receptors in endogenous expressing cell lines, the inventors selected concentrations of 40 nmol/kg, 80 nmol/kg, and 160 nmol/kg. (Huynh A S, Chung W J, Cho H I, Moberg V E, Celis E, Morse D L, Vagner J. Novel Toll-like Receptor 2 Ligands for Targeted Pancreatic Cancer Imaging and Immunotherapy. J Med Chem. 2012; 55(22):9751-62) Fluorescence imaging was performed using the IVIS200 imaging system at various time points following intravenous administration of Dmt-Tic-IR800. For the bilateral flank subcutaneous xenograft model using endogenously expressing cells the optimal dose was 40 nmol/kg.
Fluorescence imaging of mice bearing H1299 (δOR−) cells in the left flank and DMS-53 (δOR+) cells in the right flank was performed using the Optix MX3 imaging system and a 40 nmol/kg dose of Dmt-Tic-IR800. […] FIG. 28 is a series of in vivo fluorescence images taken at different time points of mice bearing the xenograft tumors of lung cancer cell lines with positive endogenous expression (DMS-53) and non-expression (H1299). […] FIG. 30 is a series of graphs depicting the quantified values from in vivo imaging of the lung cancer xenograft tumors using the Optix MX-3 imaging instrument by ART. FIG. 31 is a series of representative images depicting the ex vivo fluorescence imaging of excised positive tumor, negative tumor, liver, lungs, kidneys and GI tract following intravenous administration of the Dmt-Tic-IR800 agent. […]
For dose determination assays on the Xenogen IVIS-200, images were analyzed using Living Image Software (v3.2). […]

[4] = test system: DMS-53 luc+ (DOR+) orthotopic lung tumor; assay: Orthotopic model of lung cancer, fluorescence molecular tomography; assay type: in vivo, mice; settings: 40 nmol/kg i.v.; 0 to 48 hours
Method: In the orthotopic model of lung cancer, the mice undergo a minor surgical procedure during which DMS-53 luc+ (DOR+) cells are injected directly in the left lung. The growth of the tumors is monitored using bioluminescence imaging (FIG. 33A). The PK of DORL-800 was studied in this model by injecting mice intravenously with DORL-800 (40 nmol/kg) and acquiring images at various time points from 0 to 48 hours using fluorescence molecular tomography (FIG. 33B). […] FIG. 34A depicts the structure of DORL-800. FIGS. 34B and C depict in vivo fluorescence imaging of endogenously expressing subcutaneous lung cancer xenograft tumors following administration of DORL-800. The presence of tumor was confirmed by computed tomography (CT) and histology. DORL-800 was studied for use in intraoperative guidance. FIG. 35 is an image of a SCID Hairless Outbred mouse (SHO) four weeks after DMS-53 luc+ (DOR+) cells were injected directly into the lung.

[5] = In vivo pharmacokinetic (PK) and biodistribution (BD) profiles of fluorescent conjugates
[6] = literature statement; cited from earlier work
[7] = target: T2, δOR (Mus musculus, UniProt P32300); assay: Mouse-isolated vas deferens (MVD) assay against δ-agonist DPDPE; settings: n=8, read-out: Ke (inhibitory potency)
T2 construct: from tissue; host or cells: mouse isolated vas deferens
T2 sequence (P32300 whole entry): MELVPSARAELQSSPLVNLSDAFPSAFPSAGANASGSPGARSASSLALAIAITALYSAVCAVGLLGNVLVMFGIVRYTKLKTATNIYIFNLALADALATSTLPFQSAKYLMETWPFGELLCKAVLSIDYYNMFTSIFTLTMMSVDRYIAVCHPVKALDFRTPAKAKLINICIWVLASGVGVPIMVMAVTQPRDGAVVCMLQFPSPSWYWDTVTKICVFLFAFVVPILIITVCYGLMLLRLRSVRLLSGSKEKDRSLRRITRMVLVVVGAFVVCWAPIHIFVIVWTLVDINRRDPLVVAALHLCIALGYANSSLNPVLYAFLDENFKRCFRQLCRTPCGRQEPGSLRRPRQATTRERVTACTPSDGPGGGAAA
Text: (Kramer, T. H.; Davis, P.; Hruby, V. J.; Burks, T. F.; Porreca, F. J. Pharmacol. Exp. Ther. 1993, 266, 577-584)

[8] = test system: HCT-116/RFP (δOR negative) and HCT-116/δOR tumors; assay: Intravital fluorescence microscopy, dorsal skin-fold window chamber tumor xenograft; assay type: in vivo, mice; settings: 45 nmol/kg i.v.; HCT-116/RFP (δOR negative) tumor; post tail vein injection
Method: as §1
Mice containing dorsal skin-fold window chamber tumor xenografts were injected with 45 nmol/kg Dmt-Tic-Cy5 i.v. (FIG. 12) Images were acquired continuously for 15 minutes post-injection and at various time points after. […] Dmt-Tic-Cy5 is taken up and extravasates from the rat GFP vessels within seconds post tail vein injection (top). Dmt-Tic-Cy5 is cleared by 33 minutes post tail vein injection (bottom). Light gray represents the RFP signal from the tumor cells, medium gray represents the GFP signal from the rat microvessels, and dark gray is the Cy5 signal from the ligand. […] Shown are the Cy5 signal from the ligand in dark gray (left images) and overlays of the Cy5 signal and white light channels (right images) pre-injection and 25 minutes, 45 minutes, 60 minutes, 1 hour 25 minutes, and 24 hours post-injection.

[9] = target: δ-opioid receptor; settings: literature value; cited from earlier work

Compound: Cc1cc(O)cc(C)c1C[C@H](N)C(=O)N1Cc2ccccc2C[C@H]1C(=O)N[C@@H](CCCCNC(=O)CCSC1CC(=O)N(CCNC(=O)CCCCC[N+]2=C(/C=C/C3=C(Oc4ccc(S(=O)(=O)O)cc4)C(=C/C=C4/N(CCCCS(=O)(=O)O)c5ccc(S(=O)(=O)O)cc5C4(C)C)/CCC3)C(C)(C)c3cc(S(=O)(=O)[O-])ccc32)C1=O)C(=O)O (stereo partly drawn) [Dmt-Tic-IR800]
- Ki [1]: 1.43 ± 0.24 nM
- fold enhancement of the positive tumor (HCT-116/δOR) relative to the negative tumor (HCT-116) ([2]; 10 nmol/kg i.v., 24 hours post-injection, Optix MX3, n=4): ~7 fold
- tumor selectivity in fluorescence image ([2]; 10 nmol/kg, 24 h post-administration): selective for the δOR+ tumor
- fold enhancement of the positive tumor (DMS-53) relative to the negative tumor (H1299) ([3]; 40 nmol/kg i.v., 24 hours post-injection, Optix MX3, n=4): ~4 fold
- tumor selectivity in fluorescence image [3]: selective for the δOR+ tumor
- tumor selectivity in fluorescence image ([3]; listed as DORL-800): selective for the DOR+ tumor
- accumulation in orthotopic tumor [4]: accumulated specifically in the tumor
- blood-brain barrier passage [5]: does not cross the blood-brain barrier

Compound: CC1(C)C(/C=C/C2=C(Oc3ccc(S(=O)(=O)O)cc3)C(=C/C=C3/N(CCCCS(=O)(=O)O)c4ccc(S(=O)(=O)[O-])cc4C3(C)C)/CCC2)=[N+](CCCCCC(=O)O)c2ccc(S(=O)(=O)O)cc21 [Licor IR800CW]
- toxicity [6]: non-toxic

Compound: CC[N+]1=C(C=CC=CC=C2N(CCCCCC(=O)NCCN3C(=O)CC(SCCC(=O)NCCCC[C@H](NC(=O)[C@@H]4Cc5ccccc5CN4C(=O)[C@@H](N)Cc4c(C)cc(O)cc4C)C(=O)O)C3=O)c3ccc(S(=O)(=O)O)cc3C2(C)C)C(C)(C)c2cc(S(=O)(=O)[O-])ccc21 (stereo partly drawn) [ligand 1, Dmt-Tic-Lys(Cy5)-OH]
- Ki [1]: 3 nM
- Kb [7]: 0.037 nM
- time of maximum probe uptake in the δOR+ tumor ([2]; 4.5 nmol/kg i.v., time course 0-168 h): 3 h
- time by which probe is cleared from δOR negative tumor [8]: ≤ 33 min
- blood-brain barrier passage [5]: does not cross the blood-brain barrier

Compound: Dmt-Tic-Lys(Ac)-OH
- Ki [9]: 0.047 nM
